Laboratory results from patent US11578056B2, “Solid forms comprising (S)-2-(2,6-dioxopiperidin-3-yl)-4-((2-fluoro-4-((3-morpholinoazetidin-1-yl)methyl)benzyl)amino)isoindoline-1,3-dione and salts thereof, and compositions comprising and methods of using the same” (Celgene Corporation, priority 2019, dated 2023).

Key:
Format in all cases: physicochemical
[1] = Dynamic vapor sorption (DVS) hygroscopicity
Method: Dynamic vapor sorption (DVS) was measured using DVS advantage (Surface Measurement Systems Ltd). The samples were tested under isotherm (25° C.) at a targeted RH of 0 to 95% full cycle in step mode. For an isotherm test, the chamber temperature is maintained by a water bath at constant 25.0±1.0° C. The relative humidity in the sample chamber is generated by combining different flows of wet and dry nitrogen with variable flow rates. The analysis was performed in 10% RH increments. Sampling rate is 1 sec save data rate is 20 sec. The dm/dt (%) value was set at 0.001 with a dm/dt window of 5 min., a minimum stability duration time of 10 min, and a maximum stage time of 180 min. The sample's equilibrium weight corresponding to each RH was recorded. A sorption isotherm is obtained by plotting equilibrium moisture content versus RH.

[2] = Shear sensitivity (compression, XRPD); settings: compressed under 700 and 1100 lbs for 1 minute
Method: Shear Sensitivity: Form A of a hydrochloride salt of Compound 1 was compressed under 700 and 1100 lbs for 1 minute and analyzed by XRPD.

[3] = Solid state stability, Accelerated Stability Assessment Program (ASAP)
Method: (§1) Solid State Stability: Solid state stability of Form A of a hydrochloride salt of Compound 1 was evaluated using Accelerated Stability Assessment Program (ASAP). Forced degradation storage conditions were used between 60-80° C. and 0-80% RH for up to 2 weeks. A photostress study under 2 times ICH conditions was also conducted in the solid state. The solid samples were analyzed for both chemical and chiral stability. At the end of the study, the crystalline form of the compound was verified by XRPD.

[4] = Solid state photostress study under 2 times ICH conditions
Method: as §1

[5] = Long term solid state stability (double LDPE bags in HDPE container)
Method: Long Term Solid State Stability: Form A of a hydrochloride salt of Compound 1 (packaged in double LDPE bags in HDPE container) was stored up to 3 months at 25° C./60% RH, 30° C./65% RH, and 40° C./75% RH storage conditions. […] Therefore, a re-test period of 12 months is proposed when stored at or below 25° C.

Cl.O=C1CC[C@H](N2C(=O)c3cccc(NCc4ccc(CN5CC(N6CCOCC6)C5)cc4F)c3C2=O)C(=O)N1
solid form after DVS ([1]; after DVS): remained as Form A
hygroscopicity (DVS) ([1]; below 90% RH): moderate hygroscopic
water uptake expressed as moles of water (DVS) ([1]; corresponding to the about 3.0% w/w uptake): about 1 mole
sorption/desorption reversibility (DVS) ([1]; during two full cycles): almost reversible
moisture picked up (DVS) ([1]; from dry up to 90% RH): ~2.9 % wt
mass increase (DVS) ([1]; increase in RH from about 0% to about 95%): about 3.0%
water uptake (DVS) ([1]; sorption at all humidities, FIG. 7): about 3.0 % w/w
solid form after compression (XRPD) [2]: remained the same
changes in assay ([3]; 60-80° C., 0-80% RH, up to 2 weeks, except 80° C./0% RH after 1 week and 2 weeks): < 5%
LC Purity (%) ([3]; 60° C., 50% RH, 7 days): 98.51%
R-isomer % area ([3]; 60° C., 50% RH, 7 days): 1.26 % area
LC Purity (%) ([3]; 60° C., 50% RH, 14 days): 98.47%
R-isomer % area ([3]; 60° C., 50% RH, 14 days): 1.28 % area
LC Purity (%) ([3]; 70° C., 20% RH, 7 days): 98.28%
R-isomer % area ([3]; 70° C., 20% RH, 7 days): 1.26 % area
LC Purity (%) ([3]; 70° C., 20% RH, 14 days): 98.50%
R-isomer % area ([3]; 70° C., 20% RH, 14 days): 1.26 % area
LC Purity (%) ([3]; 70° C., 75% RH, 7 days): 98.48%
R-isomer % area ([3]; 70° C., 75% RH, 7 days): 1.34 % area
LC Purity (%) ([3]; 70° C., 75% RH, 14 days): 98.24%
R-isomer % area ([3]; 70° C., 75% RH, 14 days): 1.49 % area
LC Purity (%) ([3]; 80° C., 0% RH, 7 days): 91.18%
R-isomer % area ([3]; 80° C., 0% RH, 7 days): 1.77 % area
LC Purity (%) ([3]; 80° C., 0% RH, 14 days): 86.98%
R-isomer % area ([3]; 80° C., 0% RH, 14 days): 1.28 % area
LC Purity (%) ([3]; 80° C., 40% RH, 7 days): 98.32%
R-isomer % area ([3]; 80° C., 40% RH, 7 days): 1.77 % area
LC Purity (%) ([3]; 80° C., 40% RH, 14 days): 98.29%
R-isomer % area ([3]; 80° C., 40% RH, 14 days): 1.30 % area
LC Purity (%) ([3]; 80° C., 70% RH, 7 days): 98.43%
R-isomer % area ([3]; 80° C., 70% RH, 7 days): 1.36 % area
LC Purity (%) ([3]; 80° C., 70% RH, 14 days): 98.21%
R-isomer % area ([3]; 80° C., 70% RH, 14 days): 1.45 % area
change of crystalline form (XRPD) ([3]; 80° C./70% RH after 10 days vs control): No change of crystalline form
ASAP stability conclusion ([3]; ASAP stability results): can be considered stable
LC Purity (%) ([3]; Heat/Humidity Control): 98.44%
R-isomer % area ([3]; Heat/Humidity Control): 1.26 % area
maximum change in chiral purity ([3]; across all conditions, maximum under high humidity conditions): ≤ 0.2%
LC Purity (%) ([4]; 2x ICH Photo Stressed): 94.80%
R-isomer % area ([4]; 2x ICH Photo Stressed): 1.17 % area
LC Purity (%) ([4]; Photo Stressed Control): 98.45%
R-isomer % area ([4]; Photo Stressed Control): 1.27 % area
changes in assay ([4]; photostability conditions (2 times ICH), solid state): < 4%
Appearance (Yellow powder) ([5]; 25° C./60% RH, 0 Month): Conforms
Chiral Purity (%) ([5]; 25° C./60% RH, 0 Month): 96.0%
Chromatographic Purity (%) ([5]; 25° C./60% RH, 0 Month): 98.6%
Solid forms (XRPD), consistent with Form A ([5]; 25° C./60% RH, 0 Month): Conforms
Total Related Impurities (%) ([5]; 25° C./60% RH, 0 Month): 1.41%
Water (%) ([5]; 25° C./60% RH, 0 Month): 1.4%
Appearance (Yellow powder) ([5]; 25° C./60% RH, 1 Month): Conforms
Chiral Purity (%) ([5]; 25° C./60% RH, 1 Month): 95.7%
Chromatographic Purity (%) ([5]; 25° C./60% RH, 1 Month): 98.5%
Solid forms (XRPD), consistent with Form A ([5]; 25° C./60% RH, 1 Month): Conforms
Total Related Impurities (%) ([5]; 25° C./60% RH, 1 Month): 1.50%
Water (%) ([5]; 25° C./60% RH, 1 Month): 1.7%
Appearance (Yellow powder) ([5]; 25° C./60% RH, 3 Month): Conforms
Chiral Purity (%) ([5]; 25° C./60% RH, 3 Month): 95.7%
Chromatographic Purity (%) ([5]; 25° C./60% RH, 3 Month): 98.5%
Solid forms (XRPD), consistent with Form A ([5]; 25° C./60% RH, 3 Month): Conforms
Total Related Impurities (%) ([5]; 25° C./60% RH, 3 Month): 1.55%
Water (%) ([5]; 25° C./60% RH, 3 Month): 1.9%
long term solid state stability ([5]; 25° C./60% RH, 30° C./65% RH and 40° C./75% RH for 3 months, double LDPE bags in HDPE container): demonstrate stability
Appearance (Yellow powder) ([5]; 30° C./65% RH, 0 Month): Conforms
Chiral Purity (%) ([5]; 30° C./65% RH, 0 Month): 96.0%
Chromatographic Purity (%) ([5]; 30° C./65% RH, 0 Month): 98.6%
Total Related Impurities (%) ([5]; 30° C./65% RH, 0 Month): 1.41%
Water (%) ([5]; 30° C./65% RH, 0 Month): 1.4%
Appearance (Yellow powder) ([5]; 30° C./65% RH, 1 Month): Conforms
Chiral Purity (%) ([5]; 30° C./65% RH, 1 Month): 94.5%
Chromatographic Purity (%) ([5]; 30° C./65% RH, 1 Month): 98.4%
Total Related Impurities (%) ([5]; 30° C./65% RH, 1 Month): 1.56%
Water (%) ([5]; 30° C./65% RH, 1 Month): 1.9%
Appearance (Yellow powder) ([5]; 30° C./65% RH, 3 Month): Conforms
Chiral Purity (%) ([5]; 30° C./65% RH, 3 Month): 95.8%
Chromatographic Purity (%) ([5]; 30° C./65% RH, 3 Month): 98.4%
Total Related Impurities (%) ([5]; 30° C./65% RH, 3 Month): 1.63%
Water (%) ([5]; 30° C./65% RH, 3 Month): 2.0%
Appearance (Yellow powder) ([5]; 40° C./75% RH, 0 Month): Conforms
Chiral Purity (%) ([5]; 40° C./75% RH, 0 Month): 96.0%
Chromatographic Purity (%) ([5]; 40° C./75% RH, 0 Month): 98.6%
Solid forms (XRPD), consistent with Form A ([5]; 40° C./75% RH, 0 Month): Conforms
Total Related Impurities (%) ([5]; 40° C./75% RH, 0 Month): 1.41%
Water (%) ([5]; 40° C./75% RH, 0 Month): 1.4%
Appearance (Yellow powder) ([5]; 40° C./75% RH, 1 Month): Conforms
Chiral Purity (%) ([5]; 40° C./75% RH, 1 Month): 96.0%
Chromatographic Purity (%) ([5]; 40° C./75% RH, 1 Month): 98.5%
Solid forms (XRPD), consistent with Form A ([5]; 40° C./75% RH, 1 Month): Conforms
Total Related Impurities (%) ([5]; 40° C./75% RH, 1 Month): 1.52%
Water (%) ([5]; 40° C./75% RH, 1 Month): 1.8%
Appearance (Yellow powder) ([5]; 40° C./75% RH, 3 Month): Conforms
Chiral Purity (%) ([5]; 40° C./75% RH, 3 Month): 96.1%
Chromatographic Purity (%) ([5]; 40° C./75% RH, 3 Month): 98.4%
Solid forms (XRPD), consistent with Form A ([5]; 40° C./75% RH, 3 Month): Conforms
Total Related Impurities (%) ([5]; 40° C./75% RH, 3 Month): 1.60%
Water (%) ([5]; 40° C./75% RH, 3 Month): 2.0%
proposed re-test period ([5]; when stored at or below 25° C.): 12 months
